Entries after “also recorded” stand apart in the source; their conditions may differ.

We go through two compounds from PMC12621175, “Scaffold Fusion and SAR Transfer with a Chemical Language Model Generates Novel Liver X Receptor Modulators” (Journal of Medicinal Chemistry, 2025).

What all share (type): cell-based
Series [1] deals with LXR/retinoid X receptor (RXR) heterodimer. Nature of the series: full-length LXR assay (LXR-responsive ABCA1 reporter, endogenous LXR) in HEK293T and HepG2 cells. The note with it: vs 0.1% DMSO. An excerpt:
Intrigued by the initial data on LXR modulation, we further investigated the mode-of-action of designs 1-3. As the Gal4 hybrid reporter gene assay is artificial and overexpresses LXR, we next examined LXR modulation by 1-3 in a full-length LXR assay (Figure a) based on the endogenous expression of the LXR/retinoid X receptor (RXR) heterodimer (Figure S2). Upon activation, LXR binds to response elements within the ATP-binding cassette transporter A1 (ABCA1, an LXR target gene) promoter of the reporter. […] The designs were next checked for antiproliferative effects that may compromise further in vitro characterization. […] Therefore, and due to the weak efficacy of 2, we focused further biological characterization on 1 and 3.
For the hybrid reporter gene assays, the previously reported Gal4-fusion receptor plasmids pFA-CMV-hRORα-LBD, pFA-CMV-hRORβ-LBD, pFA-CMV-hRORγ-LBD, pFA-CMV-hLXRα-LBD, pFA-CMV-hLXRβ-LBD, pFA-CMV-hFXR-LBD, pFA-CMV-hPXR-LBD, and pFA-CMV-hRXRα-LBD, coding for the hinge region, and LBD of the canonical isoform of the respective nuclear receptor were used. pFR-Luc (Stratagene) was used as the reporter plasmid, and pRL-SV40 (Promega) was used in all assays for the normalization of transfection efficiency and cell growth. pECE-SV40-Gal4-VP16 was a gift from Lea Sistonen (Addgene plasmid #71728). The LXR-responsive reporter ABCA1-pGL3 was used for the full-length reporter gene assay.
The day before transfection, HEK293T cells were seeded in 96-well plates (4 × 10^4 cells/well). Before transfection, the medium was changed to Opti-MEM without any supplements. […] Luminescence was measured with a Spark 10 M luminometer (Tecan Deutschland GmbH). […] EC50/IC50 values and the standard errors thereof were calculated with the mean fold activation values by OriginPro, Version 2025 (OriginLab Corporation, Northampton, MA, USA), fitting a dose–response curve with a variable Hill slope (Levenberg–Marquardt algorithm). […]

The target of series [2] is T1, LXRβ (Homo sapiens, UniProt P55055).
T1 construct: coding for the hinge region, and LBD of the canonical isoform of the respective nuclear receptor; expressed in transfected cells; host or cells: HEK293T
T1 sequence (P55055 222-460 limits assumed): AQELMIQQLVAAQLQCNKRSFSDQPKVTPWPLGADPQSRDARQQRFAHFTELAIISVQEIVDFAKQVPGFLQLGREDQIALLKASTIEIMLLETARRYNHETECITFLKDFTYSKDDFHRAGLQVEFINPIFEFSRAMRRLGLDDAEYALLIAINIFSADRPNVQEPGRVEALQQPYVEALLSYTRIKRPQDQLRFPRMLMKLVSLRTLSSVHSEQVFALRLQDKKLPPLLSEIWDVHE
Nature of the series: Gal4-LXRβ hybrid reporter gene assay. On the procedure:
(§1) The LXR-responsive reporter ABCA1-pGL3 was used for the full-length reporter gene assay.
(§2) The day before transfection, HEK293T cells were seeded in 96-well plates (4 × 10^4 cells/well). Before transfection, the medium was changed to Opti-MEM without any supplements. Transient transfection was carried out using Lipofectamine LTX reagent (Invitrogen) according to the manufacturer’s protocol with (a) pFR-Luc (Stratagene), pRL-SV40 (Promega), and the corresponding Gal4-fusion nuclear receptor plasmid or (b) the LXR-responsive reporter ABCA1-pGL3 and pRL-SV40 (Promega). […] Each concentration was tested in duplicate, and each experiment was repeated in at least three biologically independent repeats. […] Luminescence was measured with a Spark 10 M luminometer (Tecan Deutschland GmbH). Normalization of transfection efficiency and cell growth was done by division of firefly luciferase data by renilla luciferase data multiplied by 1000, resulting in relative light units (RLU). Fold activation was obtained by dividing the mean RLU of the tested compound at a respective concentration by the mean RLU of the untreated 0.1% DMSO control. […] Separate control experiments to exclude nonspecific reporter gene activation or VP16-mediated effects were performed following the same procedure in the absence of a nuclear receptor expression plasmid (pFR-Luc, pRL-SV40, and pECE-SV40-Gal4-VP16 only).

Series [3] deals with T2, LXRα (Homo sapiens, UniProt Q13133).
T2 construct: coding for the hinge region, and LBD of the canonical isoform of the respective nuclear receptor; expressed in transfected cells; host or cells: HEK293T
T2 sequence (Q13133 209-447 limits assumed): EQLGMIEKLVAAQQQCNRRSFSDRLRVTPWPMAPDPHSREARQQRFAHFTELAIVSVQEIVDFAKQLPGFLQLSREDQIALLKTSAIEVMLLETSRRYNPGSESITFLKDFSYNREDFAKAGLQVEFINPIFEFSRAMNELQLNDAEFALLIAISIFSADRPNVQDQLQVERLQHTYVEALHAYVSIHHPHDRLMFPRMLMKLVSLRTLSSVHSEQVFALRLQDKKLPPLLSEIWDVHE
Nature of the series: Gal4-LXRα hybrid reporter gene assay. The note with it: for classification: applies to LXRa and LXRb; for LXR modulation in Gal4 hybrid reporter gene assays (mode of action): both LXR subtypes (LXRα and LXRβ). On the procedure: as §1, §2
A general note: Reporter assays use an easily measured gene product as a stand-in for the process of interest.

Series [4] deals with HEK293T cells. Nature of the series: resazurin-based proliferation assay, HEK293T. How it is done:
HepG2 or HEK293T cells were seeded in 96-well plates (4 × 10^4 cells per well). […] After 4, 14, and 24 h, the medium was aspirated, and the cells were incubated with 100 μM resazurin solution in Opti-MEM (prepared from a 0.15 mg/mL resazurin stock in DPBS) for 60 min. The metabolic activity was assessed by conversion of resazurin to resorufin, which was quantified by measuring absorbance at 570 nm and a reference wavelength of 600 nm. The cell count was calculated from a calibration curve with 0–10^5 cells per well in steps of 2 × 10^4.
For orientation: The colour change of resazurin is a common sign of viable cells or microbes.

Take `CS(=O)(=O)c1cccc(-c2ccc(CN(Cc3cccc(C(F)(F)F)c3Cl)CC(c3ccccc3)c3ccccc3)cc2)c1` [Compound 3, N-(2-Chloro-3-[trifluoromethyl]benzyl)-N-([3′-{methylsulfonyl}-{1,1′-biphenyl}-4-yl]methyl)-2,2-diphenylethan-1-amine]: the “LXR modulation in LXR-responsive ABCA1 reporter gene assay” value in series [1] (10 μM) is recorded as “robustly blocked LXR activation; also recorded: inverse agonist”. Further, in series [2], the IC50 is 2.95 µM. Further, in series [3], it took 7.59 µM to reach half-maximal inhibition (IC50), the classification result is “antagonist” and the “LXR modulation in Gal4 hybrid reporter gene assays (mode of action)” value is “did not activate LXRs but suppressed LXR activation by the reference agonist T0901317”. Besides, in series [4] (30 μM), the antiproliferative effect result is “did not inhibit the proliferation”.
Regarding `CCN(C(=O)c1ccccc1)c1ccc(C(O)(C(F)(F)F)C(F)(F)F)cc1` [Compound 1, N-Ethyl-N-(4-[1,1,1,3,3,3-hexafluoro-2-hydroxypropan-2-yl]phenyl)benzamide], the “LXR modulation in LXR-responsive ABCA1 reporter gene assay” value in series [1] (3 μM) is reported as “partial LXR agonists; also recorded: partial LXR agonism”. In series [2] (classification agonist, read-out: LXRb pEC50/pIC50 (converted)), the EC50 is 0.589 µM. Besides, in series [3], the classification result was “agonist” and the “LXR modulation in Gal4 hybrid reporter gene assays (mode of action)” value is given as “partial agonists”. Also, the EC50 in series [3] (classification agonist, read-out: LXRa pEC50/pIC50 (converted)) was 0.562 µM. The antiproliferative effect result in series [4] (10 μM) is given as “did not inhibit the proliferation”.

The IC50 is the point on the concentration scale where inhibition reaches its midpoint. High values mean a need for much substance, low ones inhibition by little substance.
